We go through one molecule from publication PMC12169104, “Towards the development of supramolecular self-associating amphiphiles as antibiofilm agents against Pseudomonas aeruginosa and Candida albicans biofilms” (Journal of Materials Chemistry. B, 2025).

Data set [1] is described as follows: Protein binding in human plasma by equilibrium dialysis. The format is in vitro ADME. The procedure:
(§1) Section S5: In vitro and in vivo studies
(§2) These studies were performed by Contract Research Organisation (CRO) Pharmaron. The methodology provided within the ESI is published within the express permission of this organisation.
(§3) The percentage of a compound recovered during the analysis process should be 100 %; any deviation from this value indicates experimental limitations such as unintended potential non-specific binding events to experimental equipment, solubility issues, etc.
In vitro Absorption, Distribution and Metabolism studies methods:
Protein Binding measurements in human plasma by using equilibrium dialysis:
The fraction unbound in human plasma (P-KB, Ltd People’s hospital of Shandong) was measured using 96-well Equilibrium Dialysis Plate (HTDialysis LLC, Gales Ferry, CT). Human plasma containing 5 µM test compound was dialysed against dialysis buffer (PBS, pH 7.4) with initial samples taken to allow for assessment of plasma stability and recovery before the plate was incubated for 6 hours at 37°C at 5%
CO2. Samples were removed at 6 hours, and all samples were matrix matched and quenched with acetonitrile containing internal standard. Samples were centrifuged at 3,220g for 30 minutes to precipitate protein and enable sampling of supernatant prior to appropr iate dilution for liquid chromatography mass -spectrometry (LC -MS/MS) analysis.
Samples were analysed using a Shimadzu Nexera LC Binary Gradient LC -30AD (Shimadzu Inc, Kyoto), coupled to a Sciex 6500+ (AB Inc., Illinois). Separation was achieved using a XSelect HSS T3 (2.5µm, 2.1 x 50 mm) (Waters Ltd., Wilmslow) column at a temperature of 40°C and a binary mobile phase gradient at a flow rate of 0.8 mL/min. Initial LC conditions comprised of 95% solvent A (0.1% formic acid in water), 5% solvent B (0.1% formic acid in acetonitrile); this was ramped to 98% B at 0.5 min, held for 0.4 min and then immediately returned to initial conditions. Sample analysis was by electrospray ionisation in combined with multiple reaction monitoring in positive ionisation mode. The ionisation […]
For orientation: In equilibrium dialysis free small molecules cross a membrane that holds back macromolecules.

A short description of data set [2]: Metabolic stability in liver microsomes. The format is in vitro ADME, rat. The procedure: as §1, §2, §3
In vitro Absorption, Distribution and Metabolism studies methods: […]
The ionisation
Kinetic Solubility Determination in PBS pH 7.4:
The stock solutions of test and control compounds were prepared in DMSO at 10 mM. From this a 300 µM solution was prepared in duplicate in 100 mM Phosphate Buffered Saline (PBS, pH 7.4 ± 0.1). These solutions were then shaken at 1100rpm for 2 hours at 25°C. […]
Metabolic Stability in Rat, Mouse and Human Liver Microsomes :
The metabolic stability of compounds at a concentration of 1 µM, in rat, mouse and human liver microsomes (BD Gentest, Franklin Lakes NJ) was measured following incubation with hepatic microsomes (0.5 mg of protein / mL) in the presence and absence of cofa ctor (NADPH) at 37 °C.
Aliquots of each incubation were removed at 0.5, 5, 15, 30 and 60 minutes. The reaction was stopped by the addition of cold acetonitrile containing analytical internal standard (IS). […]
In general terms: Liver microsomes are vesicles of endoplasmic reticulum, rich in cytochrome P450 enzymes.

The nature of data set [3]: Bi-directional permeability in Caco-2 cell line. To be noted: human; for recovery at 2 h, 5 µM: Caco-2, pH 7.4, SSA recovered from the assay after 2 hours. The format is in vitro ADME. As to the method:
Bi-directional Permeability in Caco-2 Cell Line:
The bi-directional permeability in Caco-2 cell lines was determined by seeding cells onto an HTS Transwell plate. Cells were cultivated for 14-18 days in a cell culture incubator at 37°C, 5% CO2, 95% relative humidity. Cell culture medium was replaced every other day. To assess monolayer integrity the transepithelial electrical resistance (TEER) across the monolayer was measured using Millicell Epithelial volt-ohm meter prior to assay and Lucifer yellow (LY) fluorescence measurement post- […]
Test compound was prepared in DMSO and diluted in Hank’s Balanced Saline Solution (HBSS, pH 7.4) to a final concentration of 5 µM. Compound was added to the donor compartment of the transwell plate for both apical to basolateral (A>B) and basolateral to apical (B>A) measurements, with blank HBSS being added to the receiver compartment. The transwell plate was then incubated at 37°C, 5% […]
Samples were shaken at T=0 and T=2 hours to determine the concentration of initial donor sample, and the concentration of receiver and donor wells post-incubation, respectively. The samples were quenched with solvent containing internal standard (IS). The supernatant was mixed with an appropriate volume of ultra-pure water before LC-MS/MS analysis. […]
coupled to a Sciex 5500+ (AB Inc., Illinois). Separation of compounds was achieved using an XSelect HSS T3 XP (2.5µm,2.1x50mm) (Waters Ltd., Wilmslow) column at a temperature of 40°C. A binary mobile phase gradient at a flow rate of 0.7 mL/min was used. Initial LC conditions comprised of 95% solvent A (0.1% formic acid in water) and 5% solvent B (0.1% formic acid in acetonitrile). This was ramped to 95% solvent B at 1.2 minutes, held for 0.4 minutes and then immediately returned to initial conditions. Sample analysis was by electrospray ionisation combined with multiple reaction monitoring in positive ion mode. The ionspray voltage was 5500V.
On the technique in general: Caco-2 cells form a polarised layer with tight junctions and transporters.

Read-outs that look alike come from different tables or passages of the source. Where only a bound is given, the exact number is not on record here.

For the molecule `O=C(O)CNc1c(Nc2ccc(C(F)(F)F)cc2)c(=O)c1=O` [SSA 5], in data set [1] (human plasma, 6 hours), the “% Stability” value stood at 99.5%. The recovery at 6 h, 5 µM in data set [1] (human, plasma, pH 7.4, SSA recovered from the assay after 6 hours) came out at 102%. In addition, the fraction unbound at 6 h, 5 µM in data set [1] (pH 7.4, human plasma proteins, 5 µM, 6 hours incubation at 37 °C, read-out: % Bound (converted)) was 0.076. Moreover, the half-life at 1 µM in data set [2] (liver microsomes, rat microsomes, 1 µM, read-out: In vitro T1/2) is above 3.08 h. The “Hepatic Extraction Ratio (ER)” value in data set [2] (rat) is below 0.21. For the same molecule, in data set [3] (Caco-2, pH 7.4), the efflux ratio at 2 h, 5 µM was above 73.9. For the same molecule, the recovery at 2 h, 5 µM in data set [3] (read-out: % Recovery (A-B)) was below 98.4%; in data set [3] (read-out: % Recovery (B-A)), 82.6%. Besides, in data set [3] (Caco-2, pH 7.4, apical to basolateral, 5 µM, 2 hours), the Papp A→B at 2 h, 5 µM was below 0.06 ×10⁻⁶ cm/s. In data set [3] (Caco-2, pH 7.4, basolateral to apical, 5 µM, 2 hours), this molecule displayed a Papp B→A at 2 h, 5 µM of 4.24 ×10⁻⁶ cm/s.

One may read the efflux ratio as a quotient of directional permeabilities that is used to spot active efflux. For orientation: Papp A→B means the apparent permeability from the apical to the basolateral side of a cell layer. A higher Papp A→B goes with fast passage. Usually Papp B→A stands for how fast a substance crosses the layer from the basolateral side.
